From PMC6497555 (Molecular cancer therapeutics, 2019)

Tested on: HeyA8 tumor model
Experiment: HeyA8 intraperitoneal ovarian cancer mouse model
Assay type: in vivo
Settings: all four groups compared; EP-100 0.2 mg/kg, olaparib 50 mg/kg

O=C(c1cc(Cc2n[nH]c(=O)c3ccccc23)ccc1F)N1CCN(C(=O)C2CC2)CC1 [olaparib]
Body weights of the host mice at the end of the experiment: did not differ significantly
